The subject of this assay is termites. Briefly: termite perforation test on gypsum block treated with compound A, separating two chambers. It is filed as in vivo. Particulars: after 21 days; gypsum block sprayed on both faces, 0.05 g/m^2 of compound A; 160 termites in upper chamber. The source says: A gypsum block is used which has a surface area of 30 cm^2 and a thickness of 0.8 cm and is covered on both its face with cardboard having a relative density of […] and a thickness of 0.2 mm.
A solution of compound A in propylene glycol is sprayed over both faces of this block in an amount such that the gypsum block contains 0.05 g/m^2 of compound A.
Two vertical cylindrical chambers with a diameter of 5 cm are separated using the gypsum block thus treated. The upper chamber comprises 160 termites placed in damp compost. The lower chamber comprises a piece of wood placed in moistened sand.
After 21 days, a mortality rate equal to 100% is observed.

Take `N#Cc1nn(-c2c(Cl)cc(C(F)(F)F)cc2Cl)c(N)c1[S+]([O-])C(F)(F)F` (stereo not shown) [compound A, 1-[2,6-Cl2-4-CF3phenyl]-3-CN-4-[SO—CF3]-5-NH2pyrazole]: the mortality rate is 100%.

Values taken from patent US6833137B1, “Protection against termites” (Bayer CropScience S.A., priority 1996, dated 2004).
